Data reported in ChEMBL document CHEMBL4382234, “Fluoroquinolone-isatin hybrids and their biological activities” (Eur J Med Chem, 2019).
In brackets after ≈: the same amount, converted by molar mass.

Key:
Format in all cases: functional
[1] = tested on: Mycolicibacterium smegmatis; test: Antimycobacterial activity against Mycobacterium smegmatis CMCC 93202 after 72 hrs by double dilution method; conditions: CMCC 93202, 72 h
[2] = tested on: Mycobacterium tuberculosis; test: Antimycobacterial activity against Mycobacterium tuberculosis H37Rv ATCC 27294 by rapid direct susceptibility test
[3] = tested on: Mycobacterium tuberculosis; test: Antimycobacterial activity against Mycobacterium tuberculosis H37Rv after 3 to 7 days by rapid direct susceptibility test
[4] = tested on: Mycobacterium tuberculosis; test: Antitubercular activity against Mycobacterium tuberculosis H37Rv by microplate alamar blue assay

SMILES: CCO/N=C1\C(=O)N(CCN2CCC[C@H]3CN(c4c(F)cc5c(=O)c(C(=O)O)cn(C6CC6)c5c4OC)C[C@H]32)c2ccccc21
- MIC [1]: 0.39 to 16 µg/mL (≈ 0.631 to 25.9 µM)
- MIC [2]: 0.39 to 16 µg/mL (≈ 0.631 to 25.9 µM)

SMILES: COc1c(N2C[C@@H]3CCCN(CN4C(=O)/C(=N\NC(N)=S)c5ccccc54)[C@@H]3C2)c(F)cc2c(=O)c(C(=O)O)cn(C3CC3)c12
- MIC [1]: 0.39 to 16 µg/mL (≈ 0.615 to 25.2 µM)
- MIC [2]: 0.39 to 16 µg/mL (≈ 0.615 to 25.2 µM)

SMILES: CO/N=C1\C(=O)N(CCN2CCC[C@H]3CN(c4c(F)cc5c(=O)c(C(=O)O)cn(C6CC6)c5c4OC)C[C@H]32)c2cc(F)ccc21
- MIC [1]: 0.39 to 16 µg/mL (≈ 0.627 to 25.7 µM)
- MIC [2]: 0.39 to 16 µg/mL (≈ 0.627 to 25.7 µM)

SMILES: COc1c(N2C[C@@H]3CCCN(CCN4C(=O)/C(=N\O)c5cc(F)ccc54)[C@@H]3C2)c(F)cc2c(=O)c(C(=O)O)cn(C3CC3)c12
- MIC [1]: 0.39 to 16 µg/mL (≈ 0.642 to 26.3 µM)
- MIC [2]: 0.39 to 16 µg/mL (≈ 0.642 to 26.3 µM)

SMILES: COc1c(N2C[C@@H]3CCCN(CN4C(=O)C(=O)c5ccccc54)[C@@H]3C2)c(F)cc2c(=O)c(C(=O)O)cn(C3CC3)c12
- MIC [1]: 0.39 to 16 µg/mL (≈ 0.696 to 28.5 µM)
- MIC [2]: 0.39 to 16 µg/mL (≈ 0.696 to 28.5 µM)

SMILES: COc1c(N2C[C@@H]3CCCN(Cc4cn(CCN5C(=O)/C(=N/NC(N)=O)c6ccccc65)nn4)[C@@H]3C2)c(F)cc2c(=O)c(C(=O)O)cn(C3CC3)c12
- MIC [3]: 0.1 to 0.78 µg/mL (≈ 0.14 to 1.09 µM)

SMILES: COc1c(N2C[C@@H]3CCCN(Cc4cn(CCN5C(=O)C(=O)c6ccccc65)nn4)[C@@H]3C2)c(F)cc2c(=O)c(C(=O)O)cn(C3CC3)c12
- MIC [3]: 0.1 to 0.78 µg/mL (≈ 0.153 to 1.19 µM)

SMILES: CCn1cc(C(=O)O)c(=O)c2cc(F)c(N3CCN(CN4C(=O)/C(=N\c5ncc(Cc6cc(OC)c(OC)c(OC)c6)c(N)n5)c5cc(C)ccc54)C(C)C3)c(F)c21 (centres undefined)
- MIC [4]: 0.78 to 3.13 µg/mL (≈ 0.979 to 3.93 µM)

SMILES: O=C(O)c1cn(C2CC2)c2cc(N3CCN(CCCN4C(=O)/C(=N/O)c5ccccc54)CC3)c(F)cc2c1=O
- MIC [3]: 0.1 to 64 µg/mL (≈ 0.187 to 120 µM)

SMILES: CO[C@H]1/C=C/O[C@@]2(C)Oc3c(C)c(O)c4c(O)c(c(/C=N/N5CCN(C)CC5)c(O)c4c3C2=O)NC(=O)/C(C)=C\C=C\[C@H](C)[C@H](O)[C@@H](C)[C@@H](O)[C@@H](C)[C@H](OC(C)=O)[C@@H]1C [RIFAMPIN]
- MIC [4]: 0.125 µg/mL (≈ 0.152 µM)
- MIC [3]: 0.25 to 0.39 µg/mL (≈ 0.304 to 0.474 µM)

SMILES: CCn1cc(C(=O)O)c(=O)c2cc(F)c(N3CCN(CN4C(=O)/C(=N\c5ncc(Cc6cc(OC)c(OC)c(OC)c6)c(N)n5)c5cc(Cl)ccc54)C(C)C3)c(F)c21 (centres undefined)
- MIC [4]: 0.78 to 3.13 µg/mL (≈ 0.954 to 3.83 µM)

SMILES: NC(=S)N/N=C1/C(=O)N(CCCN2CCN(c3cc4c(cc3F)c(=O)c(C(=O)O)cn4C3CC3)CC2)c2ccccc21
- MIC [3]: 0.1 to 64 µg/mL (≈ 0.169 to 108 µM)

SMILES: COc1c(N2C[C@@H]3CCCN(CN4C(=O)/C(=N\NC(N)=O)c5cc(F)ccc54)[C@@H]3C2)c(F)cc2c(=O)c(C(=O)O)cn(C3CC3)c12
- MIC [1]: 0.39 to 16 µg/mL (≈ 0.614 to 25.2 µM)
- MIC [2]: 0.39 to 16 µg/mL (≈ 0.614 to 25.2 µM)

SMILES: COc1cc(Cc2cnc(/N=C3\C(=O)N(CN4CCN(c5cc6c(cc5F)c(=O)c(C(=O)O)cn6C5CC5)CC4)c4ccc(Cl)cc43)nc2N)cc(OC)c1OC
- MIC [4]: 0.78 to 3.13 µg/mL (≈ 0.978 to 3.93 µM)

SMILES: COc1c(N2C[C@@H]3CCCN(CCN4C(=O)/C(=N\NC(N)=S)c5ccccc54)[C@@H]3C2)c(F)cc2c(=O)c(C(=O)O)cn(C3CC3)c12
- MIC [1]: 0.39 to 16 µg/mL (≈ 0.602 to 24.7 µM)
- MIC [2]: 0.39 to 16 µg/mL (≈ 0.602 to 24.7 µM)

SMILES: COc1c(N2C[C@@H]3CCCN[C@@H]3C2)c(F)cc2c(=O)c(C(=O)O)cn(C3CC3)c12 [MOXIFLOXACIN]
- MIC [1]: 0.1 to 1 µg/mL (≈ 0.249 to 2.49 µM)
- MIC [2]: 0.1 to 1 µg/mL (≈ 0.249 to 2.49 µM)
- MIC [3]: 0.1 µg/mL (≈ 0.249 µM)

SMILES: COc1c(N2C[C@@H]3CCCN(Cc4cn(CCN5C(=O)/C(=N/NC(N)=O)c6cc(Br)ccc65)nn4)[C@@H]3C2)c(F)cc2c(=O)c(C(=O)O)cn(C3CC3)c12
- MIC [3]: 0.1 to 0.78 µg/mL (≈ 0.126 to 0.985 µM)

SMILES: CCO/N=C1\C(=O)N(CN2CCC[C@H]3CN(c4c(F)cc5c(=O)c(C(=O)O)cn(C6CC6)c5c4OC)C[C@H]32)c2ccccc21
- MIC [1]: 0.39 to 16 µg/mL (≈ 0.646 to 26.5 µM)
- MIC [2]: 0.39 to 16 µg/mL (≈ 0.646 to 26.5 µM)

SMILES: CO/N=C1\C(=O)N(CCN2CCC[C@H]3CN(c4c(F)cc5c(=O)c(C(=O)O)cn(C6CC6)c5c4OC)C[C@H]32)c2ccccc21
- MIC [1]: 0.39 to 16 µg/mL (≈ 0.646 to 26.5 µM)
- MIC [2]: 0.39 to 16 µg/mL (≈ 0.646 to 26.5 µM)

SMILES: COc1c(N2C[C@@H]3CCCN(CN4C(=O)/C(=N\NC(N)=O)c5ccccc54)[C@@H]3C2)c(F)cc2c(=O)c(C(=O)O)cn(C3CC3)c12
- MIC [1]: 0.39 to 16 µg/mL (≈ 0.631 to 25.9 µM)
- MIC [2]: 0.39 to 16 µg/mL (≈ 0.631 to 25.9 µM)

SMILES: COc1c(N2C[C@@H]3CCCN(CCN4C(=O)/C(=N\O)c5ccccc54)[C@@H]3C2)c(F)cc2c(=O)c(C(=O)O)cn(C3CC3)c12
- MIC [1]: 0.39 to 16 µg/mL (≈ 0.661 to 27.1 µM)
- MIC [2]: 0.39 to 16 µg/mL (≈ 0.661 to 27.1 µM)

SMILES: COc1c(N2C[C@@H]3CCCN(Cc4cn(CCN5C(=O)/C(=N/O)c6cc(Br)ccc65)nn4)[C@@H]3C2)c(F)cc2c(=O)c(C(=O)O)cn(C3CC3)c12
- MIC [3]: 0.1 to 0.78 µg/mL (≈ 0.133 to 1.04 µM)

SMILES: COc1c(N2C[C@@H]3CCCN(CCN4C(=O)/C(=N\NC(N)=O)c5cc(F)ccc54)[C@@H]3C2)c(F)cc2c(=O)c(C(=O)O)cn(C3CC3)c12
- MIC [1]: 0.39 to 16 µg/mL (≈ 0.6 to 24.6 µM)
- MIC [2]: 0.39 to 16 µg/mL (≈ 0.6 to 24.6 µM)

SMILES: COc1c(N2C[C@@H]3CCCN(CCN4C(=O)C(=O)c5ccccc54)[C@@H]3C2)c(F)cc2c(=O)c(C(=O)O)cn(C3CC3)c12
- MIC [1]: 0.39 to 16 µg/mL (≈ 0.679 to 27.8 µM)
- MIC [2]: 0.39 to 16 µg/mL (≈ 0.679 to 27.8 µM)

SMILES: COc1c(N2C[C@@H]3CCCN(CCN4C(=O)/C(=N\NC(N)=O)c5ccccc54)[C@@H]3C2)c(F)cc2c(=O)c(C(=O)O)cn(C3CC3)c12
- MIC [1]: 0.39 to 16 µg/mL (≈ 0.617 to 25.3 µM)
- MIC [2]: 0.39 to 16 µg/mL (≈ 0.617 to 25.3 µM)

SMILES: COc1cc(Cc2cnc(/N=C3\C(=O)N(CN4CCN(c5cc6c(cc5F)c(=O)c(C(=O)O)cn6C5CC5)CC4)c4ccc(C)cc43)nc2N)cc(OC)c1OC
- MIC [4]: 0.78 to 3.13 µg/mL (≈ 1 to 4.03 µM)

SMILES: COc1c(N2C[C@@H]3CCCN(Cc4cn(CCN5C(=O)/C(=N/O)c6ccccc65)nn4)[C@@H]3C2)c(F)cc2c(=O)c(C(=O)O)cn(C3CC3)c12
- MIC [3]: 0.1 to 0.78 µg/mL (≈ 0.149 to 1.16 µM)
